Among the test systems are SK-OV-3 ovarian; U251 CNS; SW-620 colon; A498 renal; PC-3 prostate; ACHN renal; A549 NSCLC; HCT-116 colon; MDA-MB-231 breast; RPMI-8226 leukemia; MDA-N; NCI-H226 lung.
Holding throughout (experiment): NCI anticancer screen, dose series, 48 h

Each structure is given as a SMILES string.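 Grown in 96-well plates, cells were treated for 48 hours with each compound at five concentrations. Insufficient inhibition: endpoint recorded as highest concentration tested. GI50: concentration for 50% inhibition of growth. The concentration for full growth arrest is given as TGI.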

Consider nine molecules from PubChem BioAssay (NCI).

As for `CCCCCC(=O)N[C@@H](c1ccccc1)C(O)C(=O)OC1C[C@@]2(O)C(OC(=O)c3ccccc3)C3[C@](C)(C(=O)[C@H](O)C(=C1C)C2(C)C)C(OC1OCC(O)C(O)C1O)C[C@H]1OC[C@@]31OC(C)=O` (stereo not given in full), the TGI in the assay with SK-OV-3 ovarian is 57.2 µM; in the assay on U251 CNS it was over 100 µM; in the assay with SW-620 colon it was over 100 µM; in the assay with A498 renal, over 100 µM; in the assay with PC-3 prostate, over 86.4 µM; in the assay with ACHN renal it was over 100 µM. The TGI with A549 NSCLC is over 100 µM; in the assay with HCT-116 colon, over 100 µM; with MDA-MB-231 breast, over 100 µM; with RPMI-8226 leukemia it was over 100 µM; in the assay on MDA-N, 1.03 µM; with NCI-H226 lung it was over 100 µM.
Turning to `C=CC1ON(Cc2ccccc2)CCc2cc(OC)c(OC)cc21` (stereo not given), the TGI in the assay on SK-OV-3 ovarian is over 100 µM; with U251 CNS it was over 100 µM; with SW-620 colon it was over 100 µM; in the assay on A498 renal, 67.8 µM; in the assay with PC-3 prostate, over 100 µM; with ACHN renal, over 100 µM. In addition, the TGI in the assay on A549 NSCLC was over 100 µM; with HCT-116 colon, over 100 µM; in the assay with MDA-MB-231 breast it was over 100 µM; in the assay on RPMI-8226 leukemia, over 100 µM; in the assay on MDA-N, 89.5 µM; in the assay on NCI-H226 lung, over 100 µM.
Regarding `CCOC(=O)c1c(Br)c(-c2ccc(Br)cc2)c(Br)n1C`, the TGI in the assay on SK-OV-3 ovarian was over 100 µM; with U251 CNS it was 55 µM; in the assay on SW-620 colon, over 100 µM; with A498 renal, 44.2 µM; in the assay with PC-3 prostate, 71.1 µM; in the assay on ACHN renal, 84.7 µM. Moreover, the TGI is over 100 µM in the assay with A549 NSCLC; 34.4 µM in the assay on HCT-116 colon; 50.1 µM in the assay on MDA-MB-231 breast; 42.3 µM with RPMI-8226 leukemia; 32.5 µM in the assay with MDA-N; 49.4 µM in the assay on NCI-H226 lung. The figures for the GI50 with HCT-116 colon and in the assay on MDA-N were 14.8 µM and 5.64 µM, respectively.
Turning to `COC(=O)c1ccccc1C#CC#Cc1ccccc1C(=O)OC`, the TGI in the assay on SK-OV-3 ovarian, in the assay with U251 CNS, with SW-620 colon, in the assay on A498 renal, in the assay on PC-3 prostate and in the assay on ACHN renal was over 10 µM throughout. Moreover, the TGI in the assay on A549 NSCLC, in the assay on HCT-116 colon, with MDA-MB-231 breast, in the assay with RPMI-8226 leukemia, with MDA-N and in the assay on NCI-H226 lung was over 10 µM in each case.
For `CCOC(=O)c1cc(C(=O)c2ccccc2)n2nc(-c3ccc(Cl)cc3)ccc12`, the TGI in the assay on SK-OV-3 ovarian is 34.5 µM; with U251 CNS, 66.3 µM; in the assay with SW-620 colon, over 100 µM; in the assay on A498 renal it was 49 µM; in the assay with PC-3 prostate, 30.4 µM; in the assay with ACHN renal, 28.2 µM. Moreover, the TGI in the assay with A549 NSCLC is 30.8 µM; in the assay on HCT-116 colon, over 100 µM; with MDA-MB-231 breast it was over 100 µM; with RPMI-8226 leukemia it was over 100 µM; in the assay on MDA-N, over 100 µM; in the assay with NCI-H226 lung, 55.8 µM.
Consider `O=C1/C(=C\c2cccc(Oc3ccccc3)c2)S(=O)(=O)C(c2ccccc2)N1c1ccccc1Cl` (stereo not given), for which the TGI in the assay with SK-OV-3 ovarian, with U251 CNS, with SW-620 colon, in the assay on A498 renal, in the assay on PC-3 prostate and in the assay on ACHN renal was over 100 µM in each case. Besides, the TGI in the assay with A549 NSCLC is over 100 µM; in the assay with HCT-116 colon, 39.2 µM; in the assay on MDA-MB-231 breast, over 100 µM; with RPMI-8226 leukemia, 56.8 µM; in the assay with MDA-N, 50.2 µM; with NCI-H226 lung it was over 100 µM.
Take `COc1cc(OC)c2c(O)c3c(cc2c1)CC(C)(C)CC3=O`: the TGI in the assay with SK-OV-3 ovarian, with U251 CNS, in the assay with SW-620 colon, with A498 renal, in the assay on PC-3 prostate and with ACHN renal was over 100 µM each time. Besides, the TGI with A549 NSCLC, with HCT-116 colon, in the assay on MDA-MB-231 breast, in the assay with RPMI-8226 leukemia, in the assay with MDA-N and with NCI-H226 lung was over 100 µM each time.
On to `O=C1Sc2ccc(Br)cc2C(=O)Sc2ccccc21`, for which the TGI is over 62.9 µM in the assay on SK-OV-3 ovarian; 27.6 µM with U251 CNS; 67.7 µM in the assay on SW-620 colon; 43.6 µM in the assay on A498 renal; 26.1 µM in the assay with PC-3 prostate; 32.8 µM with ACHN renal. Further, the TGI in the assay on A549 NSCLC was over 71.1 µM; in the assay with HCT-116 colon it was 26.9 µM; with MDA-MB-231 breast, 31.7 µM; with RPMI-8226 leukemia, 16.7 µM; with MDA-N, 22.8 µM; with NCI-H226 lung it was 44.5 µM.
Take `O=C1C(NCCc2ccc(O)c(O)c2)=CC(=O)c2ncccc21`: the TGI in the assay with SK-OV-3 ovarian is 38.5 µM; in the assay on U251 CNS it was 12.8 µM; in the assay with SW-620 colon, 32.3 µM; with A498 renal, 46.7 µM; with PC-3 prostate, over 100 µM; with ACHN renal, 33.5 µM. In addition, the TGI with A549 NSCLC is 35.7 µM; in the assay on HCT-116 colon, 29 µM; in the assay with MDA-MB-231 breast it was 16.1 µM; in the assay on RPMI-8226 leukemia it was over 70 µM; with MDA-N, 4.74 µM; with NCI-H226 lung, 30.5 µM.
